Tests used:
Test in all cases: KINOMEscan competition binding
Conditions in all cases: compound 10.0 µM
[1] = target: MAP3K7 (human) (UniProt O43318)
[2] = target: LIMK1 (human) (UniProt P53667)
[3] = target: MYO3B (human) (UniProt Q8WXR4)
[4] = target: MYLK (human) (UniProt Q15746)
[5] = target: MYLK4 (human) (UniProt Q86YV6)
[6] = target: EIF2AK2 (human) (UniProt P19525)
[7] = target: GSK3A (human) (UniProt P49840)
[8] = target: RIPK4 (human) (UniProt P57078)
[9] = target: FLT3 (human) (UniProt P36888)
[10] = target: MAP3K4 (human) (UniProt Q9Y6R4)
[11] = target: SYK (human) (UniProt P43405)
[12] = system: FLT3 (human), P36888 [ITD]
[13] = target: PAK7 (human) (UniProt Q9P286)
[14] = target: BRSK1 (human) (UniProt Q8TDC3)
[15] = target: PTK2B (human) (UniProt Q14289)
[16] = target: SRC (human) (UniProt P12931)
[17] = target: CIT (human) (UniProt O14578)
[18] = system: EGFR (human), P00533 [752-759 del]
[19] = target: MELK (human) (UniProt Q14680)
[20] = target: STK17B (human) (UniProt O94768)
[21] = target: CDK2 (human) (UniProt P24941)
[22] = target: MERTK (human) (UniProt Q12866)
[23] = target: NEK9 (human) (UniProt Q8TD19)
[24] = target: CSNK2A1 (human) (UniProt P68400)
[25] = system: FLT3 (human), P36888 [D835Y]
[26] = target: AURKC (human) (UniProt Q9UQB9)
[27] = target: PDGFRB (human) (UniProt P09619)
[28] = target: AAK1 (human) (UniProt Q2M2I8)
[29] = system: EGFR (human), P00533 [P753S; 747-752 del]
[30] = target: WEE2 (human) (UniProt P0C1S8)
[31] = target: SRMS (human) (UniProt Q9H3Y6)
[32] = target: BMP2K (human) (UniProt Q9NSY1)
[33] = target: MAP4K5 (human) (UniProt Q9Y4K4)
[34] = target: NEK1 (human) (UniProt Q96PY6)
[35] = target: CSNK1G3 (human) (UniProt Q9Y6M4)
[36] = target: SIK2 (human) (UniProt Q9H0K1)
[37] = target: TTK (human) (UniProt P33981)
[38] = target: CLK3 (human) (UniProt P49761)
[39] = target: PIK3CB (human) (UniProt P42338)
[40] = target: CDK18 (human) (UniProt Q07002)
[41] = target: TYK2 JH1 catalytic (human) (UniProt P29597)
[42] = target: RIOK2 (human) (UniProt Q9BVS4)

Chain of NEK1 (human) (Q96PY6 whole entry, looked up): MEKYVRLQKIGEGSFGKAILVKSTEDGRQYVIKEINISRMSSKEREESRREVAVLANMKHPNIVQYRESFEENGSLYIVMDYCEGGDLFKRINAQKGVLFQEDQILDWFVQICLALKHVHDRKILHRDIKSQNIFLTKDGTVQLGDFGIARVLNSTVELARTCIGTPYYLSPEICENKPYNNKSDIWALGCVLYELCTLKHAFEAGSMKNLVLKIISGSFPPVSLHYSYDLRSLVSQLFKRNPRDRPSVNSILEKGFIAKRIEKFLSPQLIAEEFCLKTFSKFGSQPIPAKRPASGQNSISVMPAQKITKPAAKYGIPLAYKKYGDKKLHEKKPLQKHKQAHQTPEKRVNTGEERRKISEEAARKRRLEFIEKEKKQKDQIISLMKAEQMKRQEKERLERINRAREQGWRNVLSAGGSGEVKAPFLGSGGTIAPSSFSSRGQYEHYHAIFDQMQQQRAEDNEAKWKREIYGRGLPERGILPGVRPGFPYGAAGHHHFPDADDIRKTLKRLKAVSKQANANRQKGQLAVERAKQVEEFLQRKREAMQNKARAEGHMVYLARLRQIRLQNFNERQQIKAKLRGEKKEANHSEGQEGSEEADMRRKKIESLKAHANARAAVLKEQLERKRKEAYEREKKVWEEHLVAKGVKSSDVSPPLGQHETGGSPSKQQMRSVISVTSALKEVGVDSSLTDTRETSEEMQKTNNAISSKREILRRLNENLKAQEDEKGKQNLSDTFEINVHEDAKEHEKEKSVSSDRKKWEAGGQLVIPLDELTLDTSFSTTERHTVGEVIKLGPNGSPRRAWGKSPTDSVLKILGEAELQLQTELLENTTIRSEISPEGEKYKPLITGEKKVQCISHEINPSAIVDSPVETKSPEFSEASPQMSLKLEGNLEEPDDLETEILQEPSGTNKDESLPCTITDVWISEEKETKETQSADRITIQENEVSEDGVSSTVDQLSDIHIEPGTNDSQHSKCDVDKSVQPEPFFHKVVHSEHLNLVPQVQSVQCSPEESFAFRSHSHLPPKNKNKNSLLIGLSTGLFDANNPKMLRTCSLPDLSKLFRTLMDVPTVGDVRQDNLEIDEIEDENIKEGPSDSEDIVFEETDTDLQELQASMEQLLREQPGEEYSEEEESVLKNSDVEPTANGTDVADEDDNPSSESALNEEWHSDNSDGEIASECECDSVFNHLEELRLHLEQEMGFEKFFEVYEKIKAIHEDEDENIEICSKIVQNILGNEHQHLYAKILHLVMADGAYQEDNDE
Chain of RIPK4 (human) (P57078 whole entry, looked up): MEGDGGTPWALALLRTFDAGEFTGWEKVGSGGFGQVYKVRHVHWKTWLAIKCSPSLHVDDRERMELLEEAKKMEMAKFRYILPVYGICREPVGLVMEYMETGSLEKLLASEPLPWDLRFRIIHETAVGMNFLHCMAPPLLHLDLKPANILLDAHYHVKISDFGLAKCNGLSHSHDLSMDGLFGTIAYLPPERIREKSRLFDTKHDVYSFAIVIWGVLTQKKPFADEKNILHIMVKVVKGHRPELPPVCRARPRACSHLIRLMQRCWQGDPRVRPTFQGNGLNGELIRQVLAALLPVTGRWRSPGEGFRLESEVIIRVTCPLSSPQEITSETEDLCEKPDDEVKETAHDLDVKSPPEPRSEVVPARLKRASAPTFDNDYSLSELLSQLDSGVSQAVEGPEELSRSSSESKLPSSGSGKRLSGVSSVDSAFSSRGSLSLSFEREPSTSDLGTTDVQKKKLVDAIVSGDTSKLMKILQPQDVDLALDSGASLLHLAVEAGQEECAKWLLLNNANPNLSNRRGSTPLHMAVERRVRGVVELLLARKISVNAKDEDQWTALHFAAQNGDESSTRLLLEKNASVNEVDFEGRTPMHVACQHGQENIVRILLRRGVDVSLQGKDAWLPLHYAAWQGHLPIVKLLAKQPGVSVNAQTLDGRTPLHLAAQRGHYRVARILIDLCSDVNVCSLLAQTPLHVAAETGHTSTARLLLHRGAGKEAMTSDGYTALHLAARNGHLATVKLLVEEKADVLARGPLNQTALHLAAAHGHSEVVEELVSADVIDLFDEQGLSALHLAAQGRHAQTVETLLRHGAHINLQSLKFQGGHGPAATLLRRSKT
Chain of CIT (human) (O14578 whole entry, looked up): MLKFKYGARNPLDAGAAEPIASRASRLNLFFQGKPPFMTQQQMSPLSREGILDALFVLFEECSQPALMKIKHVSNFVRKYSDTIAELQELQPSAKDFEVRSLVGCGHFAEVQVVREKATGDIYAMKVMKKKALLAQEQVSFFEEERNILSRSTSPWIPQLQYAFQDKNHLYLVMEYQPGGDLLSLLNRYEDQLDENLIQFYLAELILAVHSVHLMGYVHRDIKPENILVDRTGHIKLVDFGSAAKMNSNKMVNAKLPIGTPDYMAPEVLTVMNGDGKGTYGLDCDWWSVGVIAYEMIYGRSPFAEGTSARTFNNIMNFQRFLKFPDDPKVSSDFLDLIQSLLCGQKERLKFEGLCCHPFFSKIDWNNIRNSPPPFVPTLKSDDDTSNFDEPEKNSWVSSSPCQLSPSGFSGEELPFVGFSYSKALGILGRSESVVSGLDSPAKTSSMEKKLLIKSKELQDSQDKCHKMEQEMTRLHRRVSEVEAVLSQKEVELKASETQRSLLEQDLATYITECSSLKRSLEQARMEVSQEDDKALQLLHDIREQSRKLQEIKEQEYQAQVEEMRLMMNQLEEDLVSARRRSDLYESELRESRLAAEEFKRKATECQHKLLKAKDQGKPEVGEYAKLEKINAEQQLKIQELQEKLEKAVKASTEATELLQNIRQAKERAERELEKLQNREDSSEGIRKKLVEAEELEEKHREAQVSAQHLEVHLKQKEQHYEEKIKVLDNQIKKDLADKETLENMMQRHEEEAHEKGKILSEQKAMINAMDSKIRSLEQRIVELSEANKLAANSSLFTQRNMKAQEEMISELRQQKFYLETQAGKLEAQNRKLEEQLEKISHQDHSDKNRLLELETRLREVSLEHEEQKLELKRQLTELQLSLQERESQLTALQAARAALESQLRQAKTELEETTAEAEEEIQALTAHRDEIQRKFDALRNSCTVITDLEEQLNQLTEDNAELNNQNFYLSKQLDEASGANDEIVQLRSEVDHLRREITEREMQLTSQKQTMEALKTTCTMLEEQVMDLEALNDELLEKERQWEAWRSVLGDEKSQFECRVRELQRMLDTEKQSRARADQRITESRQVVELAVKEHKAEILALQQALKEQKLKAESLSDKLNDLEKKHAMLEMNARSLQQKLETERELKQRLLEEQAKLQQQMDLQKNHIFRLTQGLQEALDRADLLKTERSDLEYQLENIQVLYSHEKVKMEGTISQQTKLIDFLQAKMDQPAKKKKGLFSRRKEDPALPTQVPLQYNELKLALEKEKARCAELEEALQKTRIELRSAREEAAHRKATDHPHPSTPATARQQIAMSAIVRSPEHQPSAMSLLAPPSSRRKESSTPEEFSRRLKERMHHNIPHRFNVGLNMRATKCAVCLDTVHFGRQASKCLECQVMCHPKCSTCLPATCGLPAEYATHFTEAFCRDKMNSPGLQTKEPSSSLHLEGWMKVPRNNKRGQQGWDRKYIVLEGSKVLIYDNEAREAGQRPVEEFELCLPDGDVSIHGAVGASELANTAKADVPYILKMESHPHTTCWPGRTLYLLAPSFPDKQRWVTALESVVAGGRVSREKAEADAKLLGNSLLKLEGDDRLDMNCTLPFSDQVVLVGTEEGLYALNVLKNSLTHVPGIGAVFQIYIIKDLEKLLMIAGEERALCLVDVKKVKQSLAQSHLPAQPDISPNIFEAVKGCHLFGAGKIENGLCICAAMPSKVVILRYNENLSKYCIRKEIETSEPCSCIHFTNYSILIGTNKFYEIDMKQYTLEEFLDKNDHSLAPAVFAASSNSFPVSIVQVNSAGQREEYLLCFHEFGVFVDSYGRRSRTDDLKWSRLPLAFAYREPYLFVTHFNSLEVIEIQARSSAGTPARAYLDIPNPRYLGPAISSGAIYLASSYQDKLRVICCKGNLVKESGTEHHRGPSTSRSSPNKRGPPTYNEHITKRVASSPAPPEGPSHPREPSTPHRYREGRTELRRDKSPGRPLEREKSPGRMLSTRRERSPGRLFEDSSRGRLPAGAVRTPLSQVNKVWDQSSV
Chain of STK17B (human) (O94768 whole entry, looked up): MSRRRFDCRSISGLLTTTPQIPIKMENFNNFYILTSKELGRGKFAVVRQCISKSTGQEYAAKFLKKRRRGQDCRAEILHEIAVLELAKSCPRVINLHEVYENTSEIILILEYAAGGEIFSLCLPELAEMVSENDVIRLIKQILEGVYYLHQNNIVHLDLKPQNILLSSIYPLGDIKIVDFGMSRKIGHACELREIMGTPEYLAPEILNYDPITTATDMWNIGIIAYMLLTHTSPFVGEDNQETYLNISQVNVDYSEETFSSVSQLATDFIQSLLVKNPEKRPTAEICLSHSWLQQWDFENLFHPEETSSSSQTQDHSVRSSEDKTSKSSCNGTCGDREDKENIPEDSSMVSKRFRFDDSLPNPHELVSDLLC
Chain of SRC (human) (P12931 whole entry, looked up): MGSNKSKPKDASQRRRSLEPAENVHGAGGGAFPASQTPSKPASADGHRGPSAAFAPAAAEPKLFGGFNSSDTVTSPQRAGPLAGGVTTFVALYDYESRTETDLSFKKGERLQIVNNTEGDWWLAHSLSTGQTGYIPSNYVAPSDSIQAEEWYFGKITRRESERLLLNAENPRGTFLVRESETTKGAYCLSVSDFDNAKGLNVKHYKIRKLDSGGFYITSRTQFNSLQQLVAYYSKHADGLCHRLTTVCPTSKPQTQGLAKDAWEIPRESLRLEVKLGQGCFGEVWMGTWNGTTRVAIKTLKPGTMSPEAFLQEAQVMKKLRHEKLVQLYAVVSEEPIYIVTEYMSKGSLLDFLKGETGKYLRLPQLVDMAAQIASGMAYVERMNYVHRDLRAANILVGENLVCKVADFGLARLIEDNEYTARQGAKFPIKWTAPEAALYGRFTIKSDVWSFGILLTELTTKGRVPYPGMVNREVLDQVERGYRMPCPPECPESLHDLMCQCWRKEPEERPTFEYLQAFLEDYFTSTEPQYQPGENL

CN1C(=O)c2ccccc2N(C)c2nc(NS(=O)(=O)c3ccc(N)cc3)ncc21
kinase still bound, per cent of control [1]: 87% | kinase still bound, per cent of control [2]: 100% | kinase still bound, per cent of control [3]: 74% | kinase still bound, per cent of control [4]: 82% | kinase still bound, per cent of control [5]: 100% | kinase still bound, per cent of control [6]: 91% | kinase still bound, per cent of control [7]: 100% | kinase still bound, per cent of control [8]: 89% | kinase still bound, per cent of control [9]: 100% | kinase still bound, per cent of control [10]: 85% | kinase still bound, per cent of control [11]: 100% | kinase still bound, per cent of control [12]: 100% | kinase still bound, per cent of control [13]: 88% | kinase still bound, per cent of control [14]: 97% | kinase still bound, per cent of control [15]: 100% | kinase still bound, per cent of control [16]: 100% | kinase still bound, per cent of control [17]: 100% | kinase still bound, per cent of control [18]: 100% | kinase still bound, per cent of control [19]: 100% | kinase still bound, per cent of control [20]: 100% | kinase still bound, per cent of control [21]: 100% | kinase still bound, per cent of control [22]: 82% | kinase still bound, per cent of control [23]: 100% | kinase still bound, per cent of control [24]: 100% | kinase still bound, per cent of control [25]: 87% | kinase still bound, per cent of control [26]: 74% | kinase still bound, per cent of control [27]: 76% | kinase still bound, per cent of control [28]: 100% | kinase still bound, per cent of control [29]: 100% | kinase still bound, per cent of control [30]: 100% | kinase still bound, per cent of control [31]: 84% | kinase still bound, per cent of control [32]: 100% | kinase still bound, per cent of control [33]: 100% | kinase still bound, per cent of control [34]: 100% | kinase still bound, per cent of control [35]: 100% | kinase still bound, per cent of control [36]: 89% | kinase still bound, per cent of control [37]: 100% | kinase still bound, per cent of control [38]: 95% | kinase still bound, per cent of control [39]: 100% | kinase still bound, per cent of control [40]: 100% | kinase still bound, per cent of control [41]: 38% | kinase still bound, per cent of control [42]: 71%

COc1cc(N2CCN(C)CC2)ccc1Nc1ncc2c(n1)Nc1ccccc1NC2=O
kinase still bound, per cent of control [1]: 96% | kinase still bound, per cent of control [2]: 100% | kinase still bound, per cent of control [3]: 100% | kinase still bound, per cent of control [4]: 100% | kinase still bound, per cent of control [5]: 100% | kinase still bound, per cent of control [6]: 59% | kinase still bound, per cent of control [7]: 100% | kinase still bound, per cent of control [8]: 100% | kinase still bound, per cent of control [9]: 69% | kinase still bound, per cent of control [10]: 95% | kinase still bound, per cent of control [11]: 91% | kinase still bound, per cent of control [12]: 63% | kinase still bound, per cent of control [13]: 78% | kinase still bound, per cent of control [14]: 91% | kinase still bound, per cent of control [15]: 99% | kinase still bound, per cent of control [16]: 48% | kinase still bound, per cent of control [17]: 47% | kinase still bound, per cent of control [18]: 69% | kinase still bound, per cent of control [19]: 64% | kinase still bound, per cent of control [20]: 93% | kinase still bound, per cent of control [21]: 100% | kinase still bound, per cent of control [22]: 80% | kinase still bound, per cent of control [23]: 87% | kinase still bound, per cent of control [24]: 76% | kinase still bound, per cent of control [25]: 20% | kinase still bound, per cent of control [26]: 55% | kinase still bound, per cent of control [27]: 13% | kinase still bound, per cent of control [28]: 75% | kinase still bound, per cent of control [29]: 39% | kinase still bound, per cent of control [30]: 93% | kinase still bound, per cent of control [31]: 0% | kinase still bound, per cent of control [32]: 72% | kinase still bound, per cent of control [33]: 98% | kinase still bound, per cent of control [34]: 95% | kinase still bound, per cent of control [35]: 96% | kinase still bound, per cent of control [36]: 82% | kinase still bound, per cent of control [37]: 86% | kinase still bound, per cent of control [38]: 100% | kinase still bound, per cent of control [39]: 88% | kinase still bound, per cent of control [40]: 86% | kinase still bound, per cent of control [41]: 66% | kinase still bound, per cent of control [42]: 43%

COc1cc(N2CCN(C)CC2)ccc1Nc1ncc2c(n1)N(C)c1sccc1C(=O)N2C
kinase still bound, per cent of control [1]: 81% | kinase still bound, per cent of control [2]: 100% | kinase still bound, per cent of control [3]: 52% | kinase still bound, per cent of control [4]: 17% | kinase still bound, per cent of control [5]: 100% | kinase still bound, per cent of control [6]: 69% | kinase still bound, per cent of control [7]: 100% | kinase still bound, per cent of control [8]: 95% | kinase still bound, per cent of control [9]: 99% | kinase still bound, per cent of control [10]: 71% | kinase still bound, per cent of control [11]: 100% | kinase still bound, per cent of control [12]: 99% | kinase still bound, per cent of control [13]: 71% | kinase still bound, per cent of control [14]: 81% | kinase still bound, per cent of control [15]: 88% | kinase still bound, per cent of control [16]: 97% | kinase still bound, per cent of control [17]: 85% | kinase still bound, per cent of control [18]: 78% | kinase still bound, per cent of control [19]: 70% | kinase still bound, per cent of control [20]: 100% | kinase still bound, per cent of control [21]: 92% | kinase still bound, per cent of control [22]: 100% | kinase still bound, per cent of control [23]: 94% | kinase still bound, per cent of control [24]: 82% | kinase still bound, per cent of control [25]: 74% | kinase still bound, per cent of control [26]: 82% | kinase still bound, per cent of control [27]: 51% | kinase still bound, per cent of control [28]: 75% | kinase still bound, per cent of control [29]: 82% | kinase still bound, per cent of control [30]: 94% | kinase still bound, per cent of control [31]: 76% | kinase still bound, per cent of control [32]: 98% | kinase still bound, per cent of control [33]: 99% | kinase still bound, per cent of control [34]: 77% | kinase still bound, per cent of control [35]: 82% | kinase still bound, per cent of control [36]: 87% | kinase still bound, per cent of control [37]: 13% | kinase still bound, per cent of control [38]: 93% | kinase still bound, per cent of control [39]: 90% | kinase still bound, per cent of control [40]: 76% | kinase still bound, per cent of control [41]: 62% | kinase still bound, per cent of control [42]: 100%

Source: the kinase profiling compilation of Christmann-Franck et al. (2016)
